Reference: ChEMBL document CHEMBL3217540, “New 3-amidinophenylalanine-derived inhibitors of matriptase” (Medchemcomm, 2012)

Columns and labels:
Prothrombin = Prothrombin (Bos taurus, UniProt P00735); assay: Inhibition of bovine thrombin using MeSO2-D-Cha-Gly-Arg-pNA as substrate
[1] = biological target: T1, Suppressor of tumorigenicity 14 protein (Homo sapiens, UniProt Q9Y5Y6); assay: Inhibition of matriptase (unknown origin) using MeSO2-D-Cha-Gly-Arg-pNA as substrate
T1 sequence (Q9Y5Y6 whole entry): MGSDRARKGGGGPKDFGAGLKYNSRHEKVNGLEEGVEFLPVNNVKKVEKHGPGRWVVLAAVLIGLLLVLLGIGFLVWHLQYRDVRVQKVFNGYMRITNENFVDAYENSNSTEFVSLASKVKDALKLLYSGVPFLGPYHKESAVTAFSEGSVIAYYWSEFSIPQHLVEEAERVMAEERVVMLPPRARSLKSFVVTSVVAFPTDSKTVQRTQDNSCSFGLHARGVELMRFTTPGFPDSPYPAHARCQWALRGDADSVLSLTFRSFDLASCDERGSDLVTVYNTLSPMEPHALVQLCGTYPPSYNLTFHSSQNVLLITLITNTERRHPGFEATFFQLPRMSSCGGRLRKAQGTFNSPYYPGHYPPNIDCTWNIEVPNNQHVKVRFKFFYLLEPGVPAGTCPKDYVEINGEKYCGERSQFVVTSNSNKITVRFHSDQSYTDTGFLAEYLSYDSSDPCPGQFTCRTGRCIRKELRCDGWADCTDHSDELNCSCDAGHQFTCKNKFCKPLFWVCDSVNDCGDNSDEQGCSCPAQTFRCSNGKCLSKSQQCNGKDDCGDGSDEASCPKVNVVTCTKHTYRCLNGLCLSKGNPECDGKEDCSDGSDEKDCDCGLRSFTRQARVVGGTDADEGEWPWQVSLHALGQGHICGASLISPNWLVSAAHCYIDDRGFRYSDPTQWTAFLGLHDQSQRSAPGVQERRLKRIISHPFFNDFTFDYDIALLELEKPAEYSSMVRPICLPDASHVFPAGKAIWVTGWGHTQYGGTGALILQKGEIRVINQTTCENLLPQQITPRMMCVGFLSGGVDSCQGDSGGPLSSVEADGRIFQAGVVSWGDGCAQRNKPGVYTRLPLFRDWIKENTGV

[2] = biological target: T2, Transmembrane protease serine 6 (Homo sapiens, UniProt Q8IU80); assay: Inhibition of matriptase-2 (unknown origin) expressed in HEK293 cells using ln-Ala-Arg-a-Arg-para-nitroanilide as substrate by UV-vis spectrophotometry; format: cell-based
T2 sequence (Q8IU80 whole entry): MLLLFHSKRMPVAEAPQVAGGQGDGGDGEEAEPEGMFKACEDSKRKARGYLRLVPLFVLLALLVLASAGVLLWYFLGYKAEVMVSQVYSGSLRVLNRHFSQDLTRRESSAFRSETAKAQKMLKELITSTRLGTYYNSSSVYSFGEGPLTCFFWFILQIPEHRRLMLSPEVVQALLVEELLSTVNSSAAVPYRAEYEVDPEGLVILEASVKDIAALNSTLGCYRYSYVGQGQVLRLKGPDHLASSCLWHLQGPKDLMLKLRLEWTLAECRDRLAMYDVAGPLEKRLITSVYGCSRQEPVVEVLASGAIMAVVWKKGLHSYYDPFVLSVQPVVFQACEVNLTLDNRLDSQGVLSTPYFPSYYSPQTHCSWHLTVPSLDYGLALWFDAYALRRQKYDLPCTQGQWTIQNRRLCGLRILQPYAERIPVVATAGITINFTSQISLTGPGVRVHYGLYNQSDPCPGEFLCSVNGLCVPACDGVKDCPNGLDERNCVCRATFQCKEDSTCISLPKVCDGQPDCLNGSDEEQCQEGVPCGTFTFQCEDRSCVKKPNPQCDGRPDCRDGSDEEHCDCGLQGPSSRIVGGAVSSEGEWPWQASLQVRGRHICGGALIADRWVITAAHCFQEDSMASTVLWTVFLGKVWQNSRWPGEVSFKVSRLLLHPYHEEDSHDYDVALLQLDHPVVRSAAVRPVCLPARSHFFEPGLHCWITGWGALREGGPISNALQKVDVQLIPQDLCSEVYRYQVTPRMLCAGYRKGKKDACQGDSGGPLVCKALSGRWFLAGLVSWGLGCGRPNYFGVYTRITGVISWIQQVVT

Coagulation factor X = Coagulation factor X (Homo sapiens, UniProt P00742); assay: Inhibition of human factor 10a using CH3OCO-D-Cha-Gly-Arg-pNA as substrate
Chain of Coagulation factor X (P00742 41-179 limits assumed): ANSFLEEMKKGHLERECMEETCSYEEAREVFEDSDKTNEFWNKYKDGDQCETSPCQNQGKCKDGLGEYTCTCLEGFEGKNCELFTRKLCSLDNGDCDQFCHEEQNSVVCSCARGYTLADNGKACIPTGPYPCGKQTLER
Chain of Coagulation factor X (P00742 235-488 limits assumed): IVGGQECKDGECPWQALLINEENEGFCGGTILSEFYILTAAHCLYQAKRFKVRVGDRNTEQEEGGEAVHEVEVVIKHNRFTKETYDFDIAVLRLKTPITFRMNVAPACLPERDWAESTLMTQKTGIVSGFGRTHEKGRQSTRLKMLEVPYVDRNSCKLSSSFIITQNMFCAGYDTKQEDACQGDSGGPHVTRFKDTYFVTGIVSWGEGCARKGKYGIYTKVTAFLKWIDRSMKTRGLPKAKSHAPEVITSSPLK

[3] = Inhibition of recombinant human airway trypsin-like protease by fluorescence assay
[4] = biological target: Urokinase-type plasminogen activator (Homo sapiens, UniProt P00749); assay: Inhibition of human uPA using Bzbeta-Ala-Gly-Arg-pNA as substrate
[5] = Selectivity ratio of Ki for bovine thrombin to Ki for matriptase (unknown origin)

SMILES	Ki (Prothrombin)	Ki [1]	Ki [2]	Ki (Coagulation factor X)	Ki [3]	Ki [4]	Ratio Ki [5]
CCOc1ccc(-c2cccc(S(=O)(=O)N[C@@H](Cc3cccc(C(=N)N)c3)C(=O)N3CCC(CCN)CC3)c2)c(Cl)c1	400 nM	13 nM	400 nM	170 nM	–	–	–
N=C(N)c1cccc(C[C@H](NS(=O)(=O)c2cccc(NC(=O)CCN)c2)C(=O)N2CCC(NC(N)=O)CC2)c1	9700 nM	35 nM	3900 nM	16900 nM	–	–	–
CCNC(=O)NCCC1CCN(C(=O)[C@H](Cc2cccc(C(=N)N)c2)NS(=O)(=O)c2cccc(NC(=O)CCN)c2)CC1	130 nM	12 nM	460 nM	4790 nM	–	–	–
CNC(=O)CCCC1CCN(C(=O)[C@H](Cc2cccc(C(=N)N)c2)NS(=O)(=O)c2cccc(-c3ccccc3F)c2)CC1	2 nM	120 nM	3000 nM	1100 nM	–	–	–
CNC(=O)NCCC1CCN(C(=O)[C@H](Cc2cccc(C(=N)N)c2)NS(=O)(=O)c2cccc(-c3ccc(OC)cc3OC)c2)CC1	0.8 nM	1.8 nM	180 nM	51 nM	110 nM	4400 nM	–
N=C(N)c1cccc(C[C@H](NS(=O)(=O)c2cccc(-c3ccc(Cl)cc3Cl)c2)C(=O)N2CCC(NC(=O)NC3CCCCC3)CC2)c1	630 nM	5.1 nM	940 nM	20 nM	2700 nM	18100 nM	> 500
N=C(N)c1cccc(C[C@H](NS(=O)(=O)c2cccc(NC(=O)CCN)c2)C(=O)N2CCC(NC(=O)NC3CCCCC3)CC2)c1	35900 nM	8 nM	790 nM	1200 nM	–	–	–
N=C(N)c1cccc(C[C@H](NS(=O)(=O)c2cccc(-c3cccc(F)c3)c2)C(=O)N2CCC(CCN)CC2)c1	40 nM	52 nM	3200 nM	3200 nM	–	–	–
CNC(=O)CCCC1CCN(C(=O)[C@H](Cc2cccc(C(=N)N)c2)NS(=O)(=O)c2cccc(-c3cccc(Cl)c3Cl)c2)CC1	4 nM	51 nM	750 nM	260 nM	–	–	–
N=C(N)c1cccc(C[C@H](NS(=O)(=O)c2cccc(NC(=O)CCN)c2)C(=O)N2CCC(NC(=O)Nc3ccccc3)CC2)c1	9250 nM	14 nM	1300 nM	3410 nM	–	–	–
N=C(N)c1cccc(C[C@H](NS(=O)(=O)c2cccc(NC(=O)CCN)c2)C(=O)N2CCC(CCNC(=O)NC3CCCCC3)CC2)c1	470 nM	23 nM	1800 nM	6450 nM	–	–	–
N=C(N)c1cccc(C[C@H](NS(=O)(=O)c2cccc(NC(=O)CCN)c2)C(=O)N2CCC(NC(=O)NCc3ccccc3)CC2)c1	7840 nM	26 nM	1100 nM	2450 nM	–	–	–
N=C(N)c1cccc(C[C@H](NS(=O)(=O)c2cccc(-c3ccc(Cl)cc3Cl)c2)C(=O)N2CCC(CCN)CC2)c1	20 nM	2 nM	110 nM	50 nM	–	–	–
CNC(=O)CCCC1CCN(C(=O)[C@H](Cc2cccc(C(=N)N)c2)NS(=O)(=O)c2cccc(-c3ccc(F)cc3)c2)CC1	1 nM	120 nM	4400 nM	550 nM	–	–	–
CCNC(=O)NC1CCN(C(=O)[C@H](Cc2cccc(C(=N)N)c2)NS(=O)(=O)c2cccc(NC(=O)CCN)c2)CC1	15300 nM	39 nM	2400 nM	8890 nM	–	–	–
N=C(N)c1cccc(C[C@H](NS(=O)(=O)c2cccc(-c3cccc(Cl)c3Cl)c2)C(=O)N2CCC(CCN)CC2)c1	20 nM	11 nM	210 nM	–	–	–	–

SMILES	Ki (Prothrombin)	Ki [1]	Ki [2]	Ki (Coagulation factor X)	Ki [3]	Ki [4]	Ratio Ki [5]
N=C(N)c1cccc(C[C@H](NS(=O)(=O)c2cccc(-c3ccc(Cl)c(Cl)c3)c2)C(=O)N2CCC(CCN)CC2)c1	30 nM	18 nM	580 nM	–	–	–	–
N=C(N)c1cccc(C[C@H](NS(=O)(=O)c2cccc(NC(=O)CCN)c2)C(=O)N2CCC(CCNC(=O)NCc3ccccc3)CC2)c1	230 nM	17 nM	1300 nM	5520 nM	–	–	–
CNC(=O)NCCC1CCN(C(=O)[C@H](Cc2cccc(C(=N)N)c2)NS(=O)(=O)c2cccc(NC(=O)CCN)c2)CC1	40 nM	7 nM	1200 nM	7070 nM	–	–	–
COc1ccc(-c2cccc(S(=O)(=O)N[C@@H](Cc3cccc(C(=N)N)c3)C(=O)N3CCC(NC(=O)NC4CCCCC4)CC3)c2)c(OC)c1	1230 nM	2.7 nM	1420 nM	11 nM	830 nM	18500 nM	> 500
CNC(=O)NCCC1CCN(C(=O)[C@H](Cc2cccc(C(=N)N)c2)NS(=O)(=O)c2cccc(-c3ccc(Cl)cc3Cl)c2)CC1	0.2 nM	0.9 nM	73 nM	29 nM	170 nM	3400 nM	–
CNC(=O)CCCC1CCN(C(=O)[C@H](Cc2cccc(C(=N)N)c2)NS(=O)(=O)c2cccc(-c3ccc(OC)cc3OC)c2)CC1	1 nM	8 nM	770 nM	60 nM	–	–	–
N=C(N)c1cccc(C[C@H](NS(=O)(=O)c2cccc(-c3ccc(F)cc3)c2)C(=O)N2CCC(CCN)CC2)c1	5 nM	33 nM	3200 nM	1120 nM	–	–	–
CNC(=O)CCCC1CCN(C(=O)[C@H](Cc2cccc(C(=N)N)c2)NS(=O)(=O)c2cccc(-c3ccc(Cl)cc3Cl)c2)CC1	1 nM	13 nM	350 nM	32 nM	–	–	–
CNC(=O)NC1CCN(C(=O)[C@H](Cc2cccc(C(=N)N)c2)NS(=O)(=O)c2cccc(NC(=O)CCN)c2)CC1	10800 nM	56 nM	1300 nM	14100 nM	–	–	–
N=C(N)c1cccc(C[C@H](NS(=O)(=O)c2cccc(NC(=O)CCN)c2)C(=O)N2CCC(CCNC(=O)Nc3ccccc3)CC2)c1	440 nM	11 nM	1900 nM	2610 nM	–	–	–
N=C(N)c1cccc(C[C@H](NS(=O)(=O)c2cccc(NC(=O)CCN)c2)C(=O)N2CCC(CCNC(N)=O)CC2)c1	140 nM	14 nM	3300 nM	13900 nM	–	–	–
N=C(N)c1cccc(C[C@H](NS(=O)(=O)c2cccc(-c3ccccc3F)c2)C(=O)N2CCC(CCN)CC2)c1	40 nM	23 nM	2100 nM	810 nM	–	–	–
CCOc1ccc(-c2cccc(S(=O)(=O)N[C@@H](Cc3cccc(C(=N)N)c3)C(=O)N3CCC(CCCC(=O)NC)CC3)c2)c(Cl)c1	30 nM	49 nM	1300 nM	180 nM	–	–	–
CNC(=O)CCCC1CCN(C(=O)[C@H](Cc2cccc(C(=N)N)c2)NS(=O)(=O)c2cccc(-c3ccc(Cl)c(Cl)c3)c2)CC1	3 nM	74 nM	1600 nM	230 nM	–	–	–
CNC(=O)CCCC1CCN(C(=O)[C@H](Cc2cccc(C(=N)N)c2)NS(=O)(=O)c2cccc(-c3cccc(F)c3)c2)CC1	6 nM	130 nM	10000 nM	3050 nM	–	–	–
